Consider 25 compounds from patent US8198311B2, “Modulators of glucocorticoid receptor, AP-1, and/or NF-κB activity and use thereof” (Bristol-Myers Squibb Company, priority 2006, dated 2012).

SMILES strings stand for the structures. Where two headings read alike, the source gives them in different places.

Assay [1] deals with AP-1 induced transcriptional activity. In words: Cellular Transrepressional Assay (AP-1 luciferase reporter in A549 cells, PMA-activated). To be noted: pAP-1-Luc, 10 ng/ml PMA, read-out: AP-1 (EC50, nM) (Cellular Transrepression Assay). The assay is classed as cell-based. The protocol: To measure the ability of test molecules to inhibit AP-1 induced transcriptional activity an A549 cell was utilized which was stably transfected with a plasmid containing 7×AP-1 DNA binding sites (pAP-1-Luc plasmid, Stratagene Co. La Jolla, Calif.) followed by the gene for luciferase. Cells were activated with 10 ng/ml of phorbol myristic acid (PMA) plus or minus test molecules for 7 hours. After 7 hours a luciferase reagent was added to measure luciferase enzymatic activity in the cell. After a 10 minute incubation of luciferase reagent with cells, luminescence was measured in a TopCount luminescence counter. Repression of AP-1 activity was calculated as the percentage decrease in the signal induced by PMA alone. Test molecules were analyzed in the concentration range from 0.1 nM to 40 μM. EC50s were determined by using standard curve fitting methods such as Excel fit (Microsoft Co.).
(In general: Reporter assays use an easily measured gene product as a stand-in for the process of interest.)

Assay [2] deals with T1, human glucocorticoid receptor (Homo sapiens, UniProt P04150).
T1 construct: purified human recombinant full-length glucocorticoid receptor (2 nM); purchased Invitrogen Part # 2893
T1 sequence (P04150 1-777): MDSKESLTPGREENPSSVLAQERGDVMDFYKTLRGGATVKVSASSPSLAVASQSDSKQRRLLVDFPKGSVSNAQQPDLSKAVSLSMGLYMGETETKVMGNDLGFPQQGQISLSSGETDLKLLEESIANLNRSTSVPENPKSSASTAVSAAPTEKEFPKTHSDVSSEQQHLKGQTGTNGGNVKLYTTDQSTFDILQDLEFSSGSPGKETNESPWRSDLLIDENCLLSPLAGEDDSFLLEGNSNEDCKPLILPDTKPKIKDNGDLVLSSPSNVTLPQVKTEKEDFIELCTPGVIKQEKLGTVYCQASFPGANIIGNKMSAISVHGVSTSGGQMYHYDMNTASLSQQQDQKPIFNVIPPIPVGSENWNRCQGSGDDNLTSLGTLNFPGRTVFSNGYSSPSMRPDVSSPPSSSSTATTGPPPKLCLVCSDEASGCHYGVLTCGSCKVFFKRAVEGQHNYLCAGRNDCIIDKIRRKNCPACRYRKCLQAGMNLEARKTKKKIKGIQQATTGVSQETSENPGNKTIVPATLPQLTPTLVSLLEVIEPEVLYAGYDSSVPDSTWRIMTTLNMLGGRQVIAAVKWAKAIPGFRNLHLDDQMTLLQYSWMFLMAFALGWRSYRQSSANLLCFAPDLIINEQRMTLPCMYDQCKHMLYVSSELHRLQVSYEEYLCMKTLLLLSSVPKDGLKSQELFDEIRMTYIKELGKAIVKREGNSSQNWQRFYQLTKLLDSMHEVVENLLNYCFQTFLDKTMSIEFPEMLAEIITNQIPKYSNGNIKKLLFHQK
In words: Glucocorticoid Receptor Binding Assay (I), fluorescence polarization competitor kit (Fluormone GS Red). To be noted: purified human recombinant full-length GR. The method, then: In order to assess the affinity of test compounds for the human glucocorticoid receptor, a commercially available kit was used (Glucocorticoid Receptor Competitor Assay Kit, Invitrogen Part # 2893). Briefly, purified human recombinant full-length glucocorticoid receptor (2 nM) was mixed with fluorescently labeled glucocorticoid (1 nM Fluormone GS Red) in the presence or absence of test compound. After two hour incubation at room temperature in the dark, the fluorescence polarization (FP) of the samples was measured. […] Test compounds were analyzed in the concentration range from 8.5E-05 μM to 5 μM.

As a reminder, the EC50 is the concentration giving half of the maximal effect. Turning to `CC(C)C(=O)NCC(C)(C)[C@@H](c1ccccc1)c1ccc2c(cnn2-c2ccc(F)cc2)c1` [Example 4, (S)-N-(3-(1-(4-fluorophenyl)-1H-indazol-5-yl)-2,2-dimethyl-3-phenylpropyl)isobutyramide], the EC50 in assay [1] (Homo sapiens, A549, 7 h) was found to be 1280 nM.

Broadly, the Ki is a dissociation constant, usually derived from enzyme kinetics or from competition with a known ligand. Regarding `CC(CNC(=O)CC(F)(F)F)C(c1ccccc1)c1ccc2c(cnn2-c2ccc(F)cc2)c1` (single isomer, unassigned) [Example 90A, 3,3,3-trifluoro-N-(3-(1-(4-fluorophenyl)-1H-indazol-5-yl)-2-methyl-3-phenylpropyl)propanamide], the Ki in assay [2] was 2.3 nM. The EC50 in assay [1] (7 hours) came to 52 nM.

As to `CC(C)CC(c1ccc2c(cnn2-c2ccc(F)cc2)c1)C(C)(C)CNC(=O)N1CC(N)C1` (stereo not drawn) [Example 40, 3-amino-N-(3-(1-(4-fluorophenyl)-1H-indazol-5-yl)-2,2,5-trimethylhexyl)azetidine-1-carboxamide], the Ki in assay [2] was 11 nM. Also, the EC50 in assay [1] (Homo sapiens, A549, 7 h) is greater than 10000 nM.

For `CC(C)CC(c1ccc2c(cnn2-c2ccc(F)cc2)c1)C(C)(C)CNC(=O)N[C@@H](C)CO` (stereo partly drawn) [Example 47, 1-(3-(1-(4-fluorophenyl)-1H-indazol-5-yl)-2,2,5-trimethylhexyl)-3-((S)-1-hydroxypropan-2-yl)urea], the Ki in assay [2] was found to be 1.3 nM. For the same compound, the EC50 in assay [1] (Homo sapiens, A549, 7 h) came to 204 nM.

In the case of `CC(C)CC(c1ccc2c(cnn2-c2ccc(F)cc2)c1)C(C)(C)CNC(=O)NC1(C)CCS(=O)(=O)C1` (stereo not drawn) [Example 38], the Ki in assay [2] worked out at 6.3 nM. In addition, the EC50 in assay [1] (Homo sapiens, A549, 7 h) is greater than 10000 nM.

In the case of `CC(CNC(=O)CC(F)(F)F)C(c1ccccc1)c1ccc2c(cnn2-c2ccc(F)cc2)c1` (single isomer, unassigned) [Example 90B, 3,3,3-trifluoro-N-(3-(1-(4-fluorophenyl)-1H-indazol-5-yl)-2-methyl-3-phenylpropyl)propanamide], the Ki in assay [2] turned out to be 21 nM. In addition, in assay [1] (7 hours), the EC50 was 176 nM.

On to `CC(C)CC(c1ccc2c(cnn2-c2ccc(F)cc2)c1)C(C)(C)CNC(=O)NC(C)(C)CN` (stereo not drawn) [Example 41, 1-(1-amino-2-methylpropan-2-yl)-3-(3-(1-(4-fluorophenyl)-1H-indazol-5-yl)-2,2,5-trimethylhexyl)urea], for which the Ki in assay [2] was 8.1 nM. The EC50 in assay [1] (Homo sapiens, A549, 7 h) was greater than 10000 nM.

Consider `CC(CNS(=O)(=O)CC(F)(F)F)C(c1ccccc1)c1ccc2c(cnn2-c2ccc(F)cc2)c1` (single isomer, unassigned) [Example 91B, 2,2,2-trifluoro-N-(3-(1-(4-fluorophenyl)-1H-indazol-5-yl)-2-methyl-3-phenylpropyl)ethanesulfonamide], for which the Ki in assay [2] turned out to be 15 nM. In addition, the EC50 in assay [1] (7 hours) came out at 201 nM.

With `CC(C)(CNC(=O)CC(F)(F)F)C1(c2ccc3c(cnn3-c3ccc(F)cc3)c2)CCOCC1` [Example 113, 3,3,3-Trifluoro-N-(2-(4-(1-(4-fluorophenyl)-1H-indazol-5-yl)tetrahydro-2H-pyran-4-yl)-2-methylpropyl)propanamide], in assay [2], the Ki was found to be 22 nM.

Turning to `O=S(=O)(CC(F)(F)F)NCC(c1ccccc1)C(c1ccccc1)c1ccc2c(cnn2-c2ccc(F)cc2)c1` (stereo not drawn) [Example 100, 2,2,2-Trifluoro-N-(3-(1-(4-fluorophenyl)-1H-indazol-5-yl)-2,3-diphenylpropyl)ethanesulfonamide], the Ki in assay [2] came to 18.3 nM. Also, the EC50 in assay [1] (Homo sapiens, A549, 7 h) is 5000 nM.

With `CC(C)CC(c1ccc2c(cnn2-c2ccc(F)cc2)c1)C(C)(C)CNC(=O)NC(c1ccccc1)c1ccccc1` (stereo not drawn) [Example 73, 1-benzhydryl-3-(3-(1-(4-fluorophenyl)-1H-indazol-5-yl)-2,2,5-trimethylhexyl)urea], the Ki in assay [2] worked out at 13 nM. For the same compound, the EC50 in assay [1] (Homo sapiens, A549, 7 h) stood at 107 nM.

For the compound `CC(C)CC(c1ccc2c(cnn2-c2ccc(F)cc2)c1)C(C)(C)CNS(=O)(=O)NC(C)(C)C` (stereo not drawn) [Example 63], the Ki in assay [2] was determined as 4.3 nM. Besides, the EC50 in assay [1] (Homo sapiens, A549, 7 h) was greater than 10000 nM.

For `CCNC(=O)NCC(C)(C)C(C)(C)c1ccc2c(cnn2-c2ccc(F)cc2)c1` [Example 117, 1-ethyl-3-(3-(1-(4-fluorophenyl)-1H-indazol-5-yl)-2,2,3-trimethylbutyl)urea], the Ki in assay [2] is 20 nM. Also, the EC50 in assay [1] (Homo sapiens, A549, 7 h) was greater than 10000 nM.

In the case of `CC(C)CC(c1ccc2c(cnn2-c2ccc(F)cc2)c1)C(C)(C)CNC(=O)N[C@H](C)C(C)(C)C` (stereo partly drawn) [Example 44, 1-((R)-3,3-dimethylbutan-2-yl)-3-(3-(1-(4-fluorophenyl)-1H-indazol-5-yl)-2,2,5-trimethylhexyl)urea], the Ki in assay [2] was determined as 2.7 nM. Further, the EC50 in assay [1] (Homo sapiens, A549, 7 h) was 54 nM.

Turning to `CCC(CNS(=O)(=O)CC(F)(F)F)C(c1ccccc1)c1ccc2c(cnn2-c2ccc(F)cc2)c1` (stereo not drawn) [Example 98, 2,2,2-Trifluoro-N-(2-((1-(4-fluorophenyl)-1H-indazol-5-yl)(phenyl)methyl)butyl)ethanesulfonamide], the Ki in assay [2] worked out at 3.7 nM. In assay [1] (Homo sapiens, A549, 7 h), the EC50 was determined as 17 nM.

Turning to `CC(C)CC(c1ccc2c(cnn2-c2ccc(F)cc2)c1)C(C)(C)CNC(=O)CC(C)(C)C` (stereo not drawn) [Example 66, N-(3-(1-(4-fluorophenyl)-1H-indazol-5-yl)-2,2,5-trimethylhexyl)-3,3-dimethylbutanamide], the Ki in assay [2] turned out to be 3 nM. The EC50 in assay [1] (Homo sapiens, A549, 7 h) is 177 nM.

In the case of `CC(C)(CNS(=O)(=O)CS(C)(=O)=O)[C@@H](c1ccccc1)c1ccc2c(cnn2-c2ccc(F)cc2)c1` [Example 14, (S)-N-(3-(1-(4-fluorophenyl)-1H-indazol-5-yl)-2,2-dimethyl-3-phenylpropyl)-1-(methylsulfonyl)methanesulfonamide], the EC50 in assay [1] (Homo sapiens, A549, 7 h) came to 1860 nM.

As for `CC(C)(CNC(=O)C(F)(F)F)[C@@H](c1ccccc1)c1ccc2c(cnn2-c2ccc(F)cc2)c1` [(S)-16, (S)-2,2,2-trifluoro-N-(3-(1-(4-fluorophenyl)-1H-indazol-5-yl)-2,2-dimethyl-3-phenylpropyl)acetamide], in assay [1] (Homo sapiens, A549, 7 h), the EC50 is 2270 nM.

Take `CC(C)(CNC(=O)Cc1ccccc1)[C@@H](c1ccccc1)c1ccc2c(cnn2-c2ccc(F)cc2)c1` [Example 3, (S)-N-(3-(1-(4-fluorophenyl)-1H-indazol-5-yl)-2,2-dimethyl-3-phenylpropyl)-2-phenylacetamide]: the EC50 in assay [1] (Homo sapiens, A549, 7 h) came to 2520 nM.

As to `CN(C)S(=O)(=O)NCC(C)(C)[C@@H](c1ccccc1)c1ccc2c(cnn2-c2ccc(F)cc2)c1` [Example 15, (S)-N-dimethyl-N′-(3-(1-(4-fluorophenyl)-1H-indazol-5-yl)-2,2-dimethyl-3-phenylpropyl)propane-1-sulfamide], the EC50 in assay [1] (Homo sapiens, A549, 7 h) worked out at 2780 nM.

Regarding `C#CC(C)(C)NC(=O)NCC(C)(C)C(CC(C)C)c1ccc2c(cnn2-c2ccc(F)cc2)c1` (stereo not drawn) [Example 72, 1-(3-(1-(4-fluorophenyl)-1H-indazol-5-yl)-2,2,5-trimethylhexyl)-3-(2-methylbut-3-yn-2-yl)urea], the Ki in assay [2] is 55 nM.

In the case of `CC(C)(C)C(=O)NCC(C)(C)[C@@H](c1ccccc1)c1ccc2c(cnn2-c2ccc(F)cc2)c1` [Example 5, (S)-N-(3-(1-(4-fluorophenyl)-1H-indazol-5-yl)-2,2-dimethyl-3-phenylpropyl)pivalamide], the EC50 in assay [1] (Homo sapiens, A549, 7 h) was determined as 1060 nM.

As to `CC(C)(CNC(=O)c1cccs1)[C@H](c1ccccc1)c1ccc2c(cnn2-c2ccc(F)cc2)c1` [Example 20, (R)-N-(3-(1-(4-fluorophenyl)-1H-indazol-5-yl)-2,2-dimethyl-3-phenylpropyl)thiophene-2-carboxamide], the EC50 in assay [1] (Homo sapiens, A549, 7 h) turned out to be 573 nM.

As for `CC(C)(CNS(=O)(=O)C1CC1)[C@@H](c1ccccc1)c1ccc2c(cnn2-c2ccc(F)cc2)c1` [Example 12, (S)-N-(3-(1-(4-fluorophenyl)-1H-indazol-5-yl)-2,2-dimethyl-3-phenylpropyl)cyclopropanesulfonamide], in assay [1] (Homo sapiens, A549, 7 h), the EC50 turned out to be 211 nM.

`CC(C)CCC(=O)NCC(C)(C)[C@@H](c1ccccc1)c1ccc2c(cnn2-c2ccc(F)cc2)c1` [Example 2, (S)-N-(3-(1-(4-fluorophenyl)-1H-indazol-5-yl)-2,2-dimethyl-3-phenylpropyl)-4-methylpentanamide]: the EC50 in assay [1] (Homo sapiens, A549, 7 h) amounted to 508 nM.
